Data from patent publication US7943599B2 (priority 2005, dated 2011).
Read-outs that look alike come from different tables or passages of the source.

Experiments:
[1] = tested on: Human keratinocytes (HaCat); format: cell-based; settings: for Malonaldehyde and 4-hydroxy alkenal: HaCat, untreated group taken as 100
Procedure: Human keratinocytes (HaCat) were plated at a density of 1.0×10^6 per 60-mm dish and then cultured in penicillin/streptomycin-containing DMEM (10% FBS) media at conditions of 37° C. and 5% CO2 for 1 week. Then, the culture media were treated with 10^−4 M of each of sesamol, the sesamol derivative of Example 1, and tocopherol as appositive control, for 24 hours. At the next day, the media were treated with 4 mM of t-BHP (t-butyl hydroperoxide) together with each of said compounds and then cultured at conditions of 37° C. and 5% CO2 for 4 hours, after which the cells were collected. The collected cells were dissolved by repeatedly performing freezing/thawing processes, and the following tests were performed in accordance with the method described in an assay kit.
In other words, in the present invention, a lipid peroxide assay kit (Calbiochem) was used as a reagent, and lipid peroxidation was measured using the principle in which long-chain unsaturated fatty acids such as malonaldehyde and 4-hydroxy alkenal form stable compounds at 586 nm by reaction with said reagent. The measurement results are shown in Table 1 below in comparison with an untreated group taken as 100.

alkaline phosphatase = assay: Hydrolysis by phosphatase in phosphate buffer, HPLC of 3-aminopropane phosphoric acid formed; format: in vitro ADME; settings: alkaline phosphatase (Sigma-Aldrich), phosphate buffer pH 7.4, HPLC, FIG. 1
Procedure: In order to examine whether the sesamol, 3-aminopropane phosphoric acid diester is hydrolyzed by phosphatase present on the skin into sesamol and 3-aminopropane phosphoric acid, the following test was performed. The sesamol, 3-aminopropane phosphoric acid diester of Example 1 and phsophatase were added in phosphate buffer (pH 7.4), followed by hydrolysis. As the phosphatase, alkaline phosphatase commercially available from Sigma-Aldrich Co. was used. The amount of 3-aminopropane phosphoric acid formed as the hydrolysis progressed was measured by HPLC (high-performance liquid chromatography), and the measurement results are shown in FIG. 1.

Fibroblasts = format: cell-based; settings: 10^-4 M; for Procollagen Synthesis (%): 24 h, serum-free media, untreated group taken as 100%
Procedure: Fibroblasts were seeded into each well of a 24-well plate at density of 10^6 cells and cultured to 90% confluence. The cultured cells were cultured in serum-free media for 24 hours and then treated with 10^−4 M of each of tocopherol, sesamol and the sesamol derivative of Example 1, which have been dissolved in serum-free media. Then, the cells were cultured in a CO2 incubator for 24 hours. The supernatants of the cell culture media were collected and observed for an increase or decrease in procollagen using a Procollagen type (A) kit. The test results are shown in Table 2 below, in which the effect of each compound on the procollagen synthesis is compared with that of an untreated group, taken as 100%.

[2] = 10^-4 M compound 24 h, then 4 mM t-BHP together with compound 4 h

Q: Which results are given for NCCCOP(=O)(O)Oc1ccc2c(c1)OCO2 [Sesamol derivative of Example 1, sesamol, 3-aminopropane phosphoric acid diester (I)]?
A: Malonaldehyde and 4-hydroxy alkenal [1, 2]: 260; antioxidant effect (in words) ([1]; 10^-4 M, t-BHP-treated HaCat, compared with sesamol and tocopherol): antioxidant effect similar to those of sesamol and the positive control tocopherol; hydrolysis by phosphatase into sesamol and 3-aminopropane phosphoric acid (alkaline phosphatase): can be hydrolyzed by phosphatase; Procollagen Synthesis (%) (Fibroblasts): 125%; effect on collagen biosynthesis (in words) (Fibroblasts; fibroblasts): showed the effect of increasing collagen biosynthesis

Q: How did the “Malonaldehyde and 4-hydroxy alkenal” value [1, 2] turn out when Oc1ccc2c(c1)OCO2 [Sesamol, sesamol] was run?
A: Its value is 250.

Q: What about the “Procollagen Synthesis (%)” value (Fibroblasts) of the same molecule?
A: Its value is 103%.

Q: With CC(C)(C)OO [t-BHP, t-butyl hydroperoxide] as the molecule, how does the “Malonaldehyde and 4-hydroxy alkenal” value ([1]; 4 mM t-BHP alone, 4 h) read?
A: The value was 320.

Q: Which “Malonaldehyde and 4-hydroxy alkenal” value [1, 2] does the source give for tocopherol here?
A: Its value is 270.

Q: And the “Procollagen Synthesis (%)” value (Fibroblasts)?
A: The value was 110%.
